The text below walks through data of patent US20250282749A1 (Tango Therapeutics, Inc., priority 2022, published 2025).

Holding throughout (type): cell-based
Assay [1] deals with PRMT5 (SDMA) in HAP1 MTAP-intact cell line. As to the kind of experiment: SDMA in-cell western assay, HAP1 MTAP-intact cell line. The conditions noted are these: Homo sapiens, HAP1 MTAP-intact cell line (endogenous MTAP), read-out: Hap 1 MTAP intact IC50. An excerpt:
(§1) HAP1 MTAP-intact is a cell line in which endogenous levels of MTAP are expressed, and HAP1 MTAP-deleted is an MTAP-null cell line.

Assay [2] concerns HAP1 MTAP-deleted cell line. As to the kind of experiment: viability assay for the MTAP-deleted cell line. The note with it: Homo sapiens.
The test system of assay [3] is PRMT5 (SDMA) in HAP1 MTAP-deleted cell line. As to the kind of experiment: SDMA in-cell western assay, HAP1 MTAP-deleted cell line. The conditions noted are these: for IC50 / IC90: Homo sapiens, SDMA in-cell western, HAP1 MTAP-deleted (MTAP-null) cell line; for Hap1 MTAP intact/deleted ratio: ratio of SDMA in-cell western IC50 in HAP1 MTAP-intact to IC50 in HAP1 MTAP-deleted cell line.
Excerpt: as §1

Bounds are passed on as bounds.

One may read the IC50 as the concentration at which inhibition is half-maximal. What is called IC90 is the concentration at which the effect reaches the 90% level. Low values mean greater potency, high ones weaker potency. On to `C[C@@H]1CN(C(=O)C(=O)Nc2cncc3cn[nH]c23)[C@@H](c2ccc3scnc3c2)CN1C(=O)C1(C)CC1` (racemic) [Compound 61, 2-oxo-N-(1H-pyrazolo[4,3-c]pyridin-7-yl)-2-[rac-(2S,5R)-2-(1,3-benzothiazol-5-yl)-5-methyl-4-(1-methylcyclopropanecarbonyl)piperazin-1-yl]acetamide], for which the IC50 in assay [1] is greater than 0.05 µM. The same compound registered an IC50 in assay [2] of 0.1 to 1 µM. For the same compound, in assay [3], the IC50 was in the range of 0.005 to 0.05 µM, the IC90 was 0.075 to 0.125 µM and the “Hap1 MTAP intact/deleted ratio” value is recorded as “C (an IC50 ratio of less than 15 fold)”.

As for `CCN1C[C@H](c2ccccc2)N(C(=O)C(=O)Nc2cnc(N)c3cn[nH]c23)C[C@H]1C` (racemic) [Compound 162, N-(4-Amino-1H-pyrazolo[4,3-c]pyridin-7-yl)-2-oxo-2-[rac-(2S,5R)-4-ethyl-5-methyl-2-phenyl-piperazin-1-yl]acetamide], the IC50 in assay [1] was greater than 0.05 µM; in assay [2] it was less than 0.1 µM; in assay [3], less than 0.005 µM. For the same compound, the “Hap1 MTAP intact/deleted ratio” value in assay [3] is reported as “A (an IC50 ratio greater than or equal to 30 fold)”.

As for `C[C@@H]1CN(C(=O)C(=O)Nc2cnc(N)c3cn[nH]c23)[C@@H](c2ccccc2)CN1C1CCC1` (racemic) [Compound 163, N-(4-Amino-2H-pyrazolo[4,3-c]pyridin-7-yl)-2-oxo-2-[rac-(2S,5R)-4-cyclobutyl-5-methyl-2-phenyl-piperazin-1-yl]acetamide], the values for the IC50 in assay [1], in assay [2] and in assay [3] were 0.005 to 0.05 µM, less than 0.1 µM and less than 0.005 µM, respectively. Moreover, in assay [3], the “Hap1 MTAP intact/deleted ratio” value is recorded as “C (an IC50 ratio of less than 15 fold)”.

With `C[C@@H]1CN(C(=O)C(=O)Nc2cnc(N)c3cn[nH]c23)[C@@H](c2ccccc2)CN1C1(C)CC1` (racemic) [Compound 167, N-(4-Amino-1H-pyrazolo[4,3-c]pyridin-7-yl)-2-oxo-2-[rac-(2S,5R)-5-methyl-4-(1-methylcyclopropyl)-2-phenyl-piperazin-1-yl]acetamide], the half-maximal inhibitory concentration (IC50) in assay [1] was greater than 0.05 µM; in assay [2] it was less than 0.1 µM; in assay [3], less than 0.005 µM. Also, the “Hap1 MTAP intact/deleted ratio” value in assay [3] is “A (an IC50 ratio greater than or equal to 30 fold)”.

Take `C[C@@H]1CN(C(=O)C(=O)Nc2cnc(N)c3cn[nH]c23)[C@@H](c2ccccc2)CN1C1CC1` (racemic) [Compound 170, N-(4-Amino-1H-pyrazolo[4,3-c]pyridin-7-yl)-2-oxo-2-[rac-(2S,5R)-4-cyclopropyl-5-methyl-2-phenyl-piperazin-1-yl]acetamide]: the IC50 is 0.005 to 0.05 µM in assay [1], less than 0.1 µM in assay [2] and less than 0.005 µM in assay [3]. Further, the “Hap1 MTAP intact/deleted ratio” value in assay [3] is “C (an IC50 ratio of less than 15 fold)”.

Turning to `Cc1cc(NC(=O)C(=O)N2C[C@@H](C)N(C(=O)C(C)C)C[C@@H]2c2ccc3scnc3c2)cnc1N` (single isomer, unassigned) [Compound 43], the 50% inhibitory concentration (IC50) in assay [1] is greater than 0.05 µM; in assay [2] it was 0.1 to 1 µM; in assay [3] it was 0.005 to 0.05 µM. The compound further gave an IC90 in assay [3] greater than 0.125 µM. In assay [3], the “Hap1 MTAP intact/deleted ratio” value is given as “C (an IC50 ratio of less than 15 fold)”.

In the case of `Cc1cc(NC(=O)C(=O)N2C[C@H](C)N(C(=O)C(C)C)C[C@H]2c2ccc3scnc3c2)cnc1N` (single isomer, unassigned) [Compound 45], the IC50 was greater than 0.05 µM in assay [1], greater than 1 µM in assay [2] and greater than 0.05 µM in assay [3]. The IC90 in assay [3] was greater than 0.125 µM. In assay [3], the “Hap1 MTAP intact/deleted ratio” value was “C (an IC50 ratio of less than 15 fold)”.

As to `Cc1cc(NC(=O)C(=O)N2C[C@@H](C)N(C(=O)C3(C)CC3)C[C@@H]2c2cccs2)cnc1N` (single isomer, unassigned) [Compound 53], the IC50 in assay [1] was 0.005 to 0.05 µM. In addition, the IC50 in assay [2] is less than 0.1 µM. Further, in assay [3], the half-maximal inhibitory concentration (IC50) was less than 0.005 µM, the IC90 was less than 0.075 µM and the “Hap1 MTAP intact/deleted ratio” value is reported as “C (an IC50 ratio of less than 15 fold)”.

For `CC(C)CN1C[C@@H](c2ccc(F)cc2)N(C(=O)C(=O)Nc2cnc(N)c(C3CC3)c2)C[C@H]1C` (single isomer, unassigned) [Compound 84], the concentration for half-maximal inhibition (IC50) in assay [1] was greater than 0.05 µM. Further, the 50% inhibitory concentration (IC50) in assay [2] was less than 0.1 µM. Moreover, in assay [3], the IC50 lay within 0.005 to 0.05 µM, the IC90 was less than 0.075 µM and the “Hap1 MTAP intact/deleted ratio” value was “A (an IC50 ratio greater than or equal to 30 fold)”.

For the compound `CCc1cc(NC(=O)C(=O)N2CCN(C(=O)C3(C(F)(F)F)CC3)C[C@H]2c2ccc(F)c(Cl)c2)cnc1N` (single isomer, unassigned) [Compound 123], the IC50 in assay [1] was greater than 0.05 µM. Besides, the IC50 in assay [2] fell in the range of 0.1 to 1 µM. In assay [3], the IC50 is 0.005 to 0.05 µM, the concentration for an effect of 90% (IC90) is greater than 0.125 µM and the “Hap1 MTAP intact/deleted ratio” value is “A (an IC50 ratio greater than or equal to 30 fold)”.

For `CC(C)OC(=O)N1C[C@H](c2ccc(F)cc2)N(C(=O)C(=O)Nc2cnc(N)c(C3CC3)c2)C[C@H]1C` (stereo in doubt) [Compound 92, isopropyl 4-(2-((6-amino-5-cyclopropylpyridin-3-yl)amino)-2-oxoacetyl)-5-(4-fluorophenyl)-2-methylpiperazine-1-carboxylate], the half-maximal inhibitory concentration (IC50) in assay [1] is greater than 0.05 µM. Also, the IC50 in assay [2] was greater than 1 µM. Besides, in assay [3], the IC50 was greater than 0.05 µM, the IC90 was greater than 0.125 µM and the “Hap1 MTAP intact/deleted ratio” value is listed as “C (an IC50 ratio of less than 15 fold)”.

Consider `Cc1cc(NC(=O)C(=O)N2CCN(C(=O)C3(C(F)(F)F)CC3)[C@H](C)[C@H]2c2ccc(F)cc2)cnc1N` (stereo in doubt) [Compound 118, N-(6-amino-5-methyl-3-pyridyl)-2-[2-(4-fluorophenyl)-3-methyl-4-[1-(trifluoromethyl)cyclopropanecarbonyl]piperazin-1-yl]-2-oxo-acetamide], for which the half-maximal inhibitory concentration (IC50) is greater than 0.05 µM in assay [1], 0.1 to 1 µM in assay [2] and 0.005 to 0.05 µM in assay [3]. The IC90 in assay [3] is greater than 0.125 µM. Also, in assay [3], the “Hap1 MTAP intact/deleted ratio” value is “B (an IC50 ratio greater than or equal to 15 fold but lower than 30 fold)”.

`C[C@@H]1CN(C(=O)C(=O)Nc2cnc(N)c(C3CC3)c2)[C@@H](c2ccc(F)cc2)CN1C(=O)OC(C)(C)C` (stereo in doubt) [Compound 144, tert-butyl 4-(2-((6-amino-5-cyclopropylpyridin-3-yl)amino)-2-oxoacetyl)-5-(4-fluorophenyl)-2-methylpiperazine-1-carboxylate]: the IC50 in assay [1] is greater than 0.05 µM. Besides, the IC50 in assay [2] was less than 0.1 µM. In assay [3], the half-maximal inhibitory concentration (IC50) was less than 0.005 µM, the concentration for an effect of 90% (IC90) is less than 0.075 µM and the “Hap1 MTAP intact/deleted ratio” value is “B (an IC50 ratio greater than or equal to 15 fold but lower than 30 fold)”.

On to `C[C@H]1CN(C(=O)C(=O)Nc2cnc(N)c(C3CC3)c2)[C@H](c2ccc(F)cc2)CN1C(=O)OC(C)(C)C` (stereo in doubt) [Compound 146, tert-butyl 4-(2-((6-amino-5-cyclopropylpyridin-3-yl)amino)-2-oxoacetyl)-5-(4-fluorophenyl)-2-methylpiperazine-1-carboxylate], for which the half-maximal inhibitory concentration (IC50) in assay [1] is greater than 0.05 µM. The IC50 in assay [2] was greater than 1 µM. In assay [3], the half-inhibitory concentration (IC50) was greater than 0.05 µM, the concentration for an effect of 90% (IC90) is greater than 0.125 µM and the “Hap1 MTAP intact/deleted ratio” value was “C (an IC50 ratio of less than 15 fold)”.

With `C[C@@H]1CN(C(=O)C(=O)Nc2cnc(N)c(C3CC3)c2)[C@@H](c2ccc(F)cc2)CN1C(=O)OC(C)(C)C` (stereo in doubt) [Compound 148, tert-butyl 4-(2-((6-amino-5-cyclopropylpyridin-3-yl)amino)-2-oxoacetyl)-5-(4-fluorophenyl)-2-methylpiperazine-1-carboxylate], the IC50 in assay [1] is greater than 0.05 µM. In assay [2], this compound yielded an IC50 of less than 0.1 µM. Besides, in assay [3], the IC50 is less than 0.005 µM, the IC90 was greater than 0.125 µM and the “Hap1 MTAP intact/deleted ratio” value was “A (an IC50 ratio greater than or equal to 30 fold)”.

For `CC(C)OC(=O)N1C[C@@H](c2ccc(F)cc2)N(C(=O)C(=O)Nc2cnc(N)c(C3CC3)c2)C[C@@H]1C` (stereo in doubt) [Compound 151, isopropyl 4-(2-((6-amino-5-cyclopropylpyridin-3-yl)amino)-2-oxoacetyl)-5-(4-fluorophenyl)-2-methylpiperazine-1-carboxylate], the IC50 in assay [1] is greater than 0.05 µM. This compound showed an IC50 in assay [2] of less than 0.1 µM. Also, in assay [3], the IC50 is less than 0.005 µM, the 90% effect concentration (IC90) is less than 0.075 µM and the “Hap1 MTAP intact/deleted ratio” value was “B (an IC50 ratio greater than or equal to 15 fold but lower than 30 fold)”.

In the case of `CCc1cc(NC(=O)C(=O)N2CCN(C(=O)C3(C(F)(F)F)CC3)[C@@H](C)[C@@H]2c2ccc(F)cc2)cnc1N` [Compound 1], the 50% inhibitory concentration (IC50) in assay [1] is greater than 0.05 µM; in assay [2] it was less than 0.1 µM; in assay [3] it was 0.005 to 0.05 µM. Also, in assay [3], the IC90 lay within 0.075 to 0.125 µM. The “Hap1 MTAP intact/deleted ratio” value in assay [3] was “A (an IC50 ratio greater than or equal to 30 fold)”.

Consider `C[C@@H]1CN(C(=O)C(=O)Nc2cnc(N)c(C3COC3)c2)[C@@H](c2ccc(F)cc2)CN1C(=O)OC(C)(C)C` [Compound 2, (2R,5S)-tert-butyl 4-(2-((6-amino-5-(oxetan-3-yl)pyridin-3-yl)amino)-2-oxoacetyl)-5-(4-fluorophenyl)-2-methylpiperazine-1-carboxylate], for which the IC50 in assay [1] is greater than 0.05 µM. This compound showed an IC50 in assay [2] of less than 0.1 µM. Besides, in assay [3], the concentration for half-maximal inhibition (IC50) was less than 0.005 µM, the 90% effect concentration (IC90) is less than 0.075 µM and the “Hap1 MTAP intact/deleted ratio” value is reported as “C (an IC50 ratio of less than 15 fold)”.

Take `C[C@H]1CN(C(=O)C(=O)Nc2cnc(N)c(C3CC3)c2)[C@H](c2ccc(F)cc2)CN1C(=O)CC1CC1` [Compound 6]: the IC50 in assay [1] was greater than 0.05 µM. In addition, the IC50 in assay [2] is less than 0.1 µM. Further, in assay [3], the IC50 fell in the range of 0.005 to 0.05 µM, the IC90 is 0.075 to 0.125 µM and the “Hap1 MTAP intact/deleted ratio” value is reported as “B (an IC50 ratio greater than or equal to 15 fold but lower than 30 fold)”.
